Measured values from patent US10759751B2, “Substituted spirocyclohexanes as muscarinic M1 receptor and/or M4 receptor agonists” (Heptares Therapeutics Limited, priority 2016, dated 2020).
Read-outs that look alike come from different tables or passages of the source.

Columns and labels:
Type in all cases: cell-based
[1] = molecular target: T1, human muscarinic M4 receptor (Homo sapiens, UniProt P08173); assay: Alphascreen Surefire phospho-ERK1/2 functional assay, M4; settings: for EC50: phospho-ERK1/2, read-out: pEC50 M4 (converted); for Emax: CHO
T1 construct: expressed in transfected cells
T1 sequence (P08173 1-479): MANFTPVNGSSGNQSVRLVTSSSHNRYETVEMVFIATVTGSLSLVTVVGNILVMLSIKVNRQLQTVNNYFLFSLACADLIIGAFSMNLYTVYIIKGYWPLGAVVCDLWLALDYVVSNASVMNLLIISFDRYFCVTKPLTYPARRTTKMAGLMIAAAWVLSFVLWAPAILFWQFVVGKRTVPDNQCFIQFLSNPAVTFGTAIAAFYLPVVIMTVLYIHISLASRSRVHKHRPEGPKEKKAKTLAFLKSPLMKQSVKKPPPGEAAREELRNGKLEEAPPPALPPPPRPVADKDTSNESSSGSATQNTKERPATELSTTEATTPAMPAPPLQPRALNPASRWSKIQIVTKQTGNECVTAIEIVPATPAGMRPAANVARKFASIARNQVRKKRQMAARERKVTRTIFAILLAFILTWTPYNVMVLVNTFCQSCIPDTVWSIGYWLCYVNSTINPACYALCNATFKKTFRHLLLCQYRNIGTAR
Method in brief: (§1)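 CHO cells stably expressing human M1, M2, M3 or M4 receptor, serum-starved overnight, then stimulated with agonist for 5 min at 37 °C. Phospho-ERK1/2 quantified in lysates by AlphaScreen SureFire. pEC50 and Emax derived per subtype.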

[2] = molecular target: T2, human muscarinic M2 receptor (Homo sapiens, UniProt P08172); assay: Alphascreen Surefire phospho-ERK1/2 functional assay, M2; settings: for EC50: CHO cells stably expressing human M2, phospho-ERK1/2, read-out: pEC50 M2 (converted); for Emax: CHO, read-out: M2 % Emax cf. ACh
T2 sequence (P08172 1-466): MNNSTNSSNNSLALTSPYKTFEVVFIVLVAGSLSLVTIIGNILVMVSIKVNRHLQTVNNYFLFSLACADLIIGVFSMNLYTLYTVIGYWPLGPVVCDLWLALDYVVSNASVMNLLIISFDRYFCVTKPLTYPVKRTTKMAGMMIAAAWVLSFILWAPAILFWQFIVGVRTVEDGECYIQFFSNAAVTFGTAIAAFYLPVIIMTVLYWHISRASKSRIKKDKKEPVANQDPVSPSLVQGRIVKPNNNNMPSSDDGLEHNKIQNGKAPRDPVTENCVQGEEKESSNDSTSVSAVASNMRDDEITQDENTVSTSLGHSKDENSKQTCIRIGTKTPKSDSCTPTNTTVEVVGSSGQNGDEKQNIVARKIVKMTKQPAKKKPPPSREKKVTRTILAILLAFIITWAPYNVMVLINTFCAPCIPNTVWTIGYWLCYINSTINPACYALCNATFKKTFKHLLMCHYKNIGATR
Experimental: (§2) Functional assays were performed using the Alphascreen Surefire phospho-ERK1/2 assay (Crouch & Osmond, Comb. Chem. High Throughput Screen, 2008). ERK1/2 phosphorylation is a downstream consequence of both Gq/11 and Gi/o protein coupled receptor activation, making it highly suitable for the assessment of M1, M3 (Gq/11 coupled) and M2, M4 receptors (Gi/o coupled), rather than using different assay formats for different receptor subtypes. CHO cells stably expressing the human muscarinic M1, M2, M3 or M4 receptor were plated (25K/well) onto 96-well tissue culture plates in MEM-alpha+10% dialysed FBS. Once adhered, cells were serum-starved overnight. Agonist stimulation was performed by the addition of 5 μL agonist to the cells for 5 min (37° C.). Media was removed and 50 μL of lysis buffer added. After 15 min, a 4 μL sample was transferred to 384-well plate and 7 μL of detection mixture added. Plates were incubated for 2 h with gentle agitation in the dark and then read on a PHERAstar plate reader.
(§3) pEC50 and Emax figures were calculated from the resulting data for each receptor subtype.

[3] = molecular target: T3, human muscarinic M3 receptor (Homo sapiens, UniProt P20309); assay: Alphascreen Surefire phospho-ERK1/2 functional assay, M3; settings: for EC50: CHO cells stably expressing human M3, phospho-ERK1/2, read-out: pEC50 M3 (converted); for Emax: CHO, read-out: M3 % Emax cf. ACh
T3 construct: expressed in transfected cells
T3 sequence (P20309 whole entry): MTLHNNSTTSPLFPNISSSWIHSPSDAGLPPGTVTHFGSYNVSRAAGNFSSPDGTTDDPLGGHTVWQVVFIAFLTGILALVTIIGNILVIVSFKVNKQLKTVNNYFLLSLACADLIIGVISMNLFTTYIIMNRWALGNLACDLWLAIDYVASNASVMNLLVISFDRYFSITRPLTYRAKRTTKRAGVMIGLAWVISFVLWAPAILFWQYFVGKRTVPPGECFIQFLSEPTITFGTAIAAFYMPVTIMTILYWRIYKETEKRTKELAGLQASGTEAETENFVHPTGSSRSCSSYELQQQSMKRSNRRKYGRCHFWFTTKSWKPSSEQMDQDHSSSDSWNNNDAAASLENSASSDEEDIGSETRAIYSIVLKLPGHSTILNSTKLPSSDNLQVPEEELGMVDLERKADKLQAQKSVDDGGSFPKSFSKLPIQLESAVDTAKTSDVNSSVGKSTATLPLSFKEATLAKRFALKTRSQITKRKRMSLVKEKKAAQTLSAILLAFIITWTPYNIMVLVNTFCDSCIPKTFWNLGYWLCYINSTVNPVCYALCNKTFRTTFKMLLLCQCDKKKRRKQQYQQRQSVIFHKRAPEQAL
Experimental: as §2, §3

[4] = molecular target: T4, human muscarinic M1 receptor (Homo sapiens, UniProt P11229); assay: Alphascreen Surefire phospho-ERK1/2 functional assay, M1; settings: for EC50: phospho-ERK1/2, read-out: pEC50 M1 (converted); for Emax: CHO
T4 sequence (P11229 1-460): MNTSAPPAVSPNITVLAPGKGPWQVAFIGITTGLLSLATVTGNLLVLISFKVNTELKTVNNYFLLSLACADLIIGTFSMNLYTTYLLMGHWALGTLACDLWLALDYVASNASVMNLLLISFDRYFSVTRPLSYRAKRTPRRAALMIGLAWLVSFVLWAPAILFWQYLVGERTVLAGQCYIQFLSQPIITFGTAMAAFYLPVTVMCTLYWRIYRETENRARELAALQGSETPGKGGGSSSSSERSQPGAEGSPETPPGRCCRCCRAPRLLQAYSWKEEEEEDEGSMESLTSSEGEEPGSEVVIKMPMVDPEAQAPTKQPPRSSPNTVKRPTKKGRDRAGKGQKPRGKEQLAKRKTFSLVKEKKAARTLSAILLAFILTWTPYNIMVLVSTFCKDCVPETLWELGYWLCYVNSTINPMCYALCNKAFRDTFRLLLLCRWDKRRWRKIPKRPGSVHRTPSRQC
Method in brief: as §1

[5] = CHO cells stably expressing human M4
[6] = read-out: M4 % Emax cf. ACh, CHO cells stably expressing human M4, Emax relative to ACh
[7] = CHO cells stably expressing human M1
[8] = read-out: M1 % Emax cf. ACh, CHO cells stably expressing human M1, Emax relative to ACh

SMILES | EC50 [1, 5] [µM] | Emax [1, 6] [%] | EC50 [2] [µM] | Emax [2] [%] | EC50 [3] [µM] | Emax [3] [%] | EC50 [4, 7] [µM] | Emax [4, 8] [%] | M4 % Emax cf. ACh ([1]; CHO cells stably expressing human M4, Emax relative to ACh) [%] | M1 % Emax cf. ACh ([4]; CHO cells stably expressing human M1, Emax relative to ACh) [%] | Emax ([1]; read-out: M4 % Emax cf. ACh) [%] | Emax ([4]; read-out: M1 % Emax cf. ACh) [%]
CCOC(=O)N[C@H]1CCN(C2CCC(C#N)(c3cccc(Cl)c3)CC2)C1 (single isomer, unassigned) [1-10 Isomer 2] | > 20 | 24 | > 20 | 6 | > 20 | 9 | 0.0282 | 106 |  |  |  | 
CCOC(=O)N[C@H]1CCN(C2CCC(C#N)(c3cccc(OC)c3)CC2)C1 (single isomer, unassigned) [1-11 Isomer 2] | > 20 | 9 | > 20 | 0 | > 20 | 1 | 0.148 | 99 |  |  |  | 
CCOC(=O)N[C@H]1CCN(C2CCC(C#N)(c3ccc(F)cn3)CC2)C1 (single isomer, unassigned) [1-14 Isomer 2] | > 20 | 32 | > 20 | 2 | > 20 | 0 | 0.123 | 89 |  |  |  | 
CCOC(=O)N(C)[C@H]1CCN(C2CCC(C#N)(c3ccccc3)CC2)C1 (single isomer, unassigned) [1-20 Isomer 2] | > 20 |  | > 20 | 0 | > 20 | 0 | 0.148 |  |  |  | 19 | 78
CCOC(=O)N(C)[C@@H]1CCN(C2CCC(C#N)(c3ccccc3)CC2)C1 (single isomer, unassigned) [1-21 Isomer 2] | > 20 |  | > 20 | 1 | > 20 | 5 | 0.11 |  |  |  | 15 | 64
CCOC(=O)N[C@H]1CCN(C2CCC3(CC2)C(=O)Nc2ccccc23)C1 (single isomer, unassigned) [2-1 isomer 1] | > 20 | 10 | > 20 | 2 | > 20 | 4 | 0.0741 | 74 |  |  |  | 
CCOC(=O)N[C@H]1CCN(C2CCC3(CC2)C(=O)Nc2cc(C)ccc23)C1 (single isomer, unassigned) [2-4 isomer 1] | > 15.8 | 11 | > 15.8 | 3 | > 15.8 | 11 | 0.0661 | 65 |  |  |  | 
CCOC(=O)N[C@H]1CCN(C2CCC3(CC2)C(=O)Nc2ccc(C)cc23)C1 (single isomer, unassigned) [2-5 isomer 1] | > 15.8 | 5 | > 20 | 13 | > 20 | 15 | 0.00776 | 49 |  |  |  | 
CCOC(=O)N[C@H]1CCN(C2CCC3(CC2)C(=O)Nc2cccc(C)c23)C1 (single isomer, unassigned) [2-6 isomer 1] | 0.0603 | 54 | > 20 | 11 | > 20 | 16 | 0.186 | 66 |  |  |  | 
CCOC(=O)N[C@H]1CCN(C2CCC3(CC2)C(=O)Nc2cc(F)ccc23)C1 (single isomer, unassigned) [2-7 isomer 2] | > 20 |  | > 20 | 5 | > 20 | 2 | 0.0525 |  | 16 | 89 |  | 
CCOC(=O)N[C@H]1CCN(C2CCC3(CC2)C(=O)Nc2ccc(OC)cc23)C1 (single isomer, unassigned) [2-10 isomer 1] | > 20 | 39 | > 20 | 27 | > 20 | 4 | 0.00794 | 64 |  |  |  | 

Further lines, with some results ahead:

EC50 [1, 5] [µM] | Emax [1, 6] [%] | EC50 [2] [µM] | Emax [2] [%] | EC50 [3] [µM] | Emax [3] [%] | EC50 [4, 7] [µM] | Emax [4, 8] [%] | M4 % Emax cf. ACh ([1]; CHO cells stably expressing human M4, Emax relative to ACh) [%] | M1 % Emax cf. ACh ([4]; CHO cells stably expressing human M1, Emax relative to ACh) [%] | SMILES | Emax ([1]; read-out: M4 % Emax cf. ACh) [%] | Emax ([4]; read-out: M1 % Emax cf. ACh) [%]
> 20 | 18 | > 20 | 7 | > 20 | 7 | 0.0562 | 48 |  |  | CCOC(=O)N[C@H]1CCN(C2CCC3(CC2)C(=O)Nc2ncc(Cl)cc23)C1 (single isomer, unassigned) [2-17 isomer 1] |  | 
0.174 | 141 | > 20 | 21 | > 20 | 11 | 0.148 | 122 |  |  | CCOC(=O)N(C)[C@@H]1CCN(C2CCC3(CC2)C(=O)Nc2ncccc23)C1 (single isomer, unassigned) [2-18 isomer 1] |  | 
0.0724 | 80 | > 20 | 0 | > 20 | 0 | 0.00302 | 92 |  |  | CCOC(=O)N1CCCN(C2CCC(C#N)(c3ccc(Br)cn3)CC2)CC1 (single isomer, unassigned) [3-17 Isomer 1] |  | 
1.74 | 39 | > 20 | 5 | > 20 | 6 | 0.0302 | 101 |  |  | CCOC(=O)N1CCCN(C2CCC(C#N)(c3ccc(OC)cn3)CC2)CC1 (single isomer, unassigned) [3-19 Isomer 2] |  | 
> 20 | 7 | > 20 | 27 | > 20 | 2 | 0.0115 | 139 |  |  | CCOC(=O)N1CCCN(C2CCC(C#N)(c3ccc(OCC)cn3)CC2)CC1 (single isomer, unassigned) [3-20 Isomer 2] |  | 
0.229 | 72 | > 20 | 6 | > 20 | 0 | 0.295 | 104 |  |  | CC#CCOC(=O)N1CCCN(C2CCC(C#N)(c3ccncc3)CC2)CC1 (single isomer, unassigned) [3-30 Isomer 1] |  | 
2.57 | 52 | > 20 | 8 | > 20 | 0 | 0.0195 | 91 |  |  | C#CCOC(=O)N1CCCN(C2CCC(C#N)(c3ccc(OC)cn3)CC2)CC1 (single isomer, unassigned) [3-31 Isomer 1] |  | 
